# Laboratory results published in the supplement of paper PMC11208160.
# Assay: recombinant barcode read abundance after kanamycin selection (control-corrected) (log10(CPM+1)); higher = more efficient recombination; sequences stand for … in AGTGCAGAGAAAATCGGCCAGTTTTCTCTGCCTGCAGTCCGCATGCCGT…AGATTTATGCAGCGGACTGCCTTTCTCCCAAAGTGATAAACCGGACAGTATCATGGACCGGTTTTCCCGGTAATCCGTATTTGCAAGGTTGGTTTCACT; site = the 11-nt target
# Outline: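 A promoter, a target, a barcode and the first 104 bridge RNA bases under J23119 made up each oligo. Oligos were Gibson-cloned into a vector bearing the other 73 bp and a T7-inducible recombinase, then co-electroporated into E. coli with a donor plasmid and plated in duplicate on chloramphenicol/ampicillin LB agar (control) or chloramphenicol/ampicillin/kanamycin with 0.1 mM IPTG. Recombination efficiency is the averaged, control-corrected counts per million of recombinant-junction barcodes. Reported values are log10(CPM+1).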
# 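Further: IS621 recombinase and bridge RNA in Escherichia coli cells.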
row,Sequence,recombinant barcode read abundance (log10)
1,GGATCTACTTGGGTTCTAACCTGTTGCCT (site GAATCTACTAG),0.174
2,GGATCTACTTGGGTTCTAACCTGTTGCCT (site GCATCTACTAG),0.514
3,GGATCTACTTGGGTTCTAACCTGTTGCCT (site GGATCTACTAG),0.235
4,GGATCTACTTGGGTTCTAACCTGTTGCCT (site GTATCTACTAG),0.0262
5,GGATTGTCTTGGGTTCTAACCTGTTGCTT (site GGATTGTCTAA),0.742
6,GGATTGTCTTGGGTTCTAACCTGTTGCTT (site GGCTAGTCTAA),0.0862
7,GGCACAACTTGGGTTCTAACCTGTTGCCT (site GGCACAACTAG),0.804
8,GGCACAACTTGGGTTCTAACCTGTTGCCT (site GGCACCACTAG),0.0796
9,GGCACAACTTGGGTTCTAACCTGTTGCCT (site GGCACGACTAG),0.262
10,GGCACAACTTGGGTTCTAACCTGTTGCCT (site GGCACTACTAG),0.0426
11,GGCACAGCTTGGGTTCTAACCTGTTGCCT (site GGCACAGCTAG),0
12,GGCACAGCTTGGGTTCTAACCTGTTGCCT (site GGCACCGCTAG),0.171
13,GGCACAGCTTGGGTTCTAACCTGTTGCCT (site GGCACGGCTAG),0.067
14,GGCACAGCTTGGGTTCTAACCTGTTGCCT (site GGCACTGCTAG),0.0566
15,GGCACCACTTGGGTTCTAACCTGTTGCCG (site GGCACCACTCG),0.295
16,GGCACCACTTGGGTTCTAACCTGTTGCCG (site TCTTGACCTAA),0.251
17,GGCACCACTTGGGTTCTAACCTGTTGCCT (site GGCACAACTAG),0.0402
18,GGCACCACTTGGGTTCTAACCTGTTGCCT (site GGCACCACTAG),0.722
19,GGCACCACTTGGGTTCTAACCTGTTGCCT (site GGCACGACTAG),0.0916
20,GGCACCACTTGGGTTCTAACCTGTTGCCT (site GGCACTACTAG),0.0174
21,GGCACTACTTGGGTTCTAACCTGTTGCCT (site GGCACAACTAG),0.0867
22,GGCACTACTTGGGTTCTAACCTGTTGCCT (site GGCACCACTAG),0.716

row,Sequence,recombinant barcode read abundance (log10)
1,GGCACTACTTGGGTTCTAACCTGTTGCCT (site GGCACGACTAG),0.166
2,GGCACTACTTGGGTTCTAACCTGTTGCCT (site GGCACTACTAG),0.392
3,GGCAGCTCTTGGGTTCTAACCTGTTGCTT (site GGCAGATCTAA),0.367
4,GGCAGCTCTTGGGTTCTAACCTGTTGCTT (site GGCAGCTCTAA),0.281
5,GGCAGCTCTTGGGTTCTAACCTGTTGCTT (site GGCAGGTCTAA),0.302
6,GGCAGCTCTTGGGTTCTAACCTGTTGCTT (site GGCAGTTCTAA),0.0524
7,GGCAGTCCTTGGGTTCTAACCTGTTGCCT (site GGCAGTCCTAA),0.111
8,GGCAGTCCTTGGGTTCTAACCTGTTGCCT (site GGCAGTCCTAG),0.206
9,GGCATCCCTTGGGTTCTAACCTGTTGCTA (site GGCATCCCTTA),0.654
10,GGCATCCCTTGGGTTCTAACCTGTTGCTA (site TTACAGGCTCG),0.205
11,GGCATTCCTTGGGTTCTAACCTGTTGCCT (site GGCACTCCTAG),0.0331
12,GGCATTCCTTGGGTTCTAACCTGTTGCCT (site GGCATTCCTAG),0.0435
13,GGCCTCCCTTGGGTTCTAACCTGTTGCCT (site GGCATCCCTAG),0.242
14,GGCCTCCCTTGGGTTCTAACCTGTTGCCT (site GGCCTCCCTAG),0.977
15,GGCCTCCCTTGGGTTCTAACCTGTTGCCT (site GGCGTCCCTAG),0.947
16,GGCCTCCCTTGGGTTCTAACCTGTTGCCT (site GGCTTCCCTAG),0.0579
17,GGCCTGCCTTGGGTTCTAACCTGTTGCCT (site GGCCTGCCTAG),1.31
18,GGCCTGCCTTGGGTTCTAACCTGTTGCCT (site GTCATGCCTAG),0.0864
19,GGCGAACCTTGGGTTCTAACCTGTTGCAT (site GACGATCCTAT),0.126
20,GGCGAACCTTGGGTTCTAACCTGTTGCAT (site GGCGAACCTAT),1.82
21,GGCGGTACTTGGGTTCTAACCTGTTGCCT (site GGCGGTACTAG),1.12
22,GGCGGTACTTGGGTTCTAACCTGTTGCCT (site GGCTGCACTAG),0.197

row,Sequence,recombinant barcode read abundance (log10)
1,GGCGTCCCTTGGGTTCTAACCTGTTGCCT (site GGCATCCCTAG),0.284
2,GGCGTCCCTTGGGTTCTAACCTGTTGCCT (site GGCCTCCCTAG),0.286
3,GGCGTCCCTTGGGTTCTAACCTGTTGCCT (site GGCGTCCCTAG),1.3
4,GGCGTCCCTTGGGTTCTAACCTGTTGCCT (site GGCTTCCCTAG),0.0801
5,GGCTAGCCTTGGGTTCTAACCTGTTGCCT (site GGCTAGCCTAG),0.423
6,GGCTAGCCTTGGGTTCTAACCTGTTGCCT (site TGTTAGCCTAG),0
7,GGCTCCTCTTGGGTTCTAACCTGTTGCAT (site GGATCCTCTAT),0.0148
8,GGCTCCTCTTGGGTTCTAACCTGTTGCAT (site GGCTCCTCTAT),0.907
9,GGCTCCTCTTGGGTTCTAACCTGTTGCCA (site GGCTCCTCTTG),0.674
10,GGCTCCTCTTGGGTTCTAACCTGTTGCCA (site GGTTCATCTTG),0.013
11,GGCTGCCCTTGGGTTCTAACCTGTTGCCT (site GACTGCCCTAG),0.156
12,GGCTGCCCTTGGGTTCTAACCTGTTGCCT (site GCCTGCCCTAG),0.57
13,GGCTGCCCTTGGGTTCTAACCTGTTGCCT (site GGCTGCCCTAG),0.258
14,GGCTGCCCTTGGGTTCTAACCTGTTGCCT (site GTCTGCCCTAG),0.149
15,GGGAACCCTTGGGTTCTAACCTGTTGCTC (site GGGAACCCTAA),0.131
16,GGGAACCCTTGGGTTCTAACCTGTTGCTC (site GGGAACCCTCA),0.659
17,GGGAACCCTTGGGTTCTAACCTGTTGCTC (site GGGAACCCTGA),1.16
18,GGGAACCCTTGGGTTCTAACCTGTTGCTC (site GGGAACCCTTA),0.509
19,GGGAACCCTTGGGTTCTAACCTGTTGCTT (site GGGAACCCTAA),1.25
20,GGGAACCCTTGGGTTCTAACCTGTTGCTT (site GGGAACCCTCA),0.386
21,GGGAACCCTTGGGTTCTAACCTGTTGCTT (site GGGAACCCTGA),0.0941
22,GGGAACCCTTGGGTTCTAACCTGTTGCTT (site GGGAACCCTTA),0.149

row,Sequence,recombinant barcode read abundance (log10)
1,GGGAAGACTTGGGTTCTAACCTGTTGCCT (site GGAAAGACTAG),1.56
2,GGGAAGACTTGGGTTCTAACCTGTTGCCT (site GGCAAGACTAG),0.0845
3,GGGAAGACTTGGGTTCTAACCTGTTGCCT (site GGGAAGACTAG),2.55
4,GGGAAGACTTGGGTTCTAACCTGTTGCCT (site GGTAAGACTAG),0.333
5,GGGAATGCTTGGGTTCTAACCTGTTGCCT (site GGGAACGCTAG),0.108
6,GGGAATGCTTGGGTTCTAACCTGTTGCCT (site GGGAATGCTAG),2.35
7,GGGACAGCTTGGGTTCTAACCTGTTGCCT (site GAGACAACTAG),0.15
8,GGGACAGCTTGGGTTCTAACCTGTTGCCT (site GGGACAGCTAG),1.12
9,GGGACCTCTTGGGTTCTAACCTGTTGCGT (site GGGACCTCTAC),2.68
10,GGGACCTCTTGGGTTCTAACCTGTTGCGT (site GGGACCTCTCC),0.201
11,GGGACGCCTTGGGTTCTAACCTGTTGCAT (site GAGCCGCCTAT),0.0802
12,GGGACGCCTTGGGTTCTAACCTGTTGCAT (site GGGACGCCTAT),1.17
13,GGGATACCTTGGGTTCTAACCTGTTGCTA (site GGGATACCTTA),1.37
14,GGGATACCTTGGGTTCTAACCTGTTGCTA (site TATGGTACTAC),0.292
15,GGGCACTCTTGGGTTCTAACCTGTTGCGT (site GGGCACTCTAA),0.559
16,GGGCACTCTTGGGTTCTAACCTGTTGCGT (site GGGCACTCTAC),2.97
17,GGGCACTCTTGGGTTCTAACCTGTTGCGT (site GGGCACTCTAG),0.161
18,GGGCACTCTTGGGTTCTAACCTGTTGCGT (site GGGCACTCTAT),2.27
19,GGGCTCACTTGGGTTCTAACCTGTTGCCT (site GGGCTCACTAG),0.983
20,GGGCTCACTTGGGTTCTAACCTGTTGCCT (site GGTCCCACTAG),0.184
